Key:
Format in all cases: in vivo
[1] = system: chickweed (Stellaria media); assay: Postemergence herbicidal activity, chickweed; details: foliar spray, visual after 2 weeks, 0 no injury, 100 complete kill
Procedure: (§1) Seeds of the desired test plant species were planted in Grace-Sierra MetroMix® 306 planting mixture, which typically has a pH of 6.0 to 6.8 and an organic matter content of about 30 percent, in plastic pots with a surface area of 64 square centimeters. When required to ensure good germination and healthy plants, a fungicide treatment and/or other chemical or physical treatment was applied. The plants were grown for 7-21 days in a greenhouse with an approximately 15 hr photoperiod which was maintained at about 23-29° C. during the day and 22-28° C. during the night. Nutrients and water were added on a regular basis and supplemental lighting was provided with overhead metal halide 1000 Watt lamps as necessary. The plants were employed for testing when they reached the first or second true leaf stage. A weighed amount of each test compound, determined by the highest rate to be tested, was placed in a 20 mL glass vial and was dissolved in 4 mL of a 97:3 v/v (volume/volume) mixture of acetone and dimethyl sulfoxide to obtain concentrated stock solutions. […] The concentrated stock solutions obtained were diluted with an aqueous mixture containing acetone, water, iso-propyl alcohol, dimethyl sulfoxide, Atplus 411F crop oil concentrate, and Triton X-155 surfactant (methylenebisdiamyl phenoxy polyethoxy ethanol) in a 48.5:39:10:1.5:1.0:0.02 v/v ratio to obtain spray solutions of known concentration. The solutions containing the highest concentration to be tested were prepared by diluting 2 mL aliquots of the stock solution with 13 mL of the mixture and lower concentrations were prepared by dilution of appropriate smaller portions of the stock solution. Approximately 1.5 mL aliquots of each solution of known concentration were sprayed evenly onto each of the test plant pots using a DeVilbiss atomizer driven by compressed air pressure of 2 to 4 psi (140 to 280 kilopascals) to obtain thorough coverage of each plant. Control plants were sprayed in the same manner with the aqueous mixture. In this test an application rate of 1 ppm results in the application of approximately 1 g/ha. The treated plants and control plants were placed in a greenhouse as described above and watered by sub-irrigation to prevent wash-off of the test compounds. After 2 weeks the condition of the test plants as compared with that of the untreated plants was determined visually and scored on a scale of 0 to 100 percent where 0 corresponds to no injury and 100 corresponds to complete kill.

[2] = system: cocklebur (Xanthium strumarium); assay: Postemergence herbicidal activity, cocklebur; details: foliar spray, visual after 2 weeks, 0 no injury, 100 complete kill
Procedure: as §1

[3] = system: lambsquarters (Chenopodium album); assay: Postemergence herbicidal activity, lambsquarters; details: foliar spray, visual after 2 weeks, 0 no injury, 100 complete kill
Procedure: as §1

[4] = system: morningglory (Ipomoea hederacea); assay: Postemergence herbicidal activity, morningglory; details: foliar spray, visual after 2 weeks, 0 no injury, 100 complete kill
Procedure: as §1

[5] = system: pigweed (Amaranthus retroflexus); assay: Postemergence herbicidal activity, pigweed; details: 7.8 ppm, foliar spray, visual after 2 weeks; 0 no injury, 100 complete kill
Procedure: as §1

[6] = system: velvetleaf (Abutilion theophrasti); assay: Postemergence herbicidal activity, velvetleaf; details: foliar spray, visual after 2 weeks, 0 no injury, 100 complete kill
Procedure: as §1

viola (Viola tricolor) = assay: Postemergence herbicidal activity, viola; details: foliar spray, visual after 2 weeks, 0 no injury, 100 complete kill
Procedure: as §1

[7] = system: wild buckwheat (Polygonum convolvulus); assay: Postemergence herbicidal activity, wild buckwheat; details: 7.8 ppm, foliar spray, visual after 2 weeks; 0 no injury, 100 complete kill
Procedure: as §1

[8] = system: blackgrass (Alopecurus myosuroides); assay: Postemergence herbicidal activity, blackgrass; details: foliar spray, visual after 2 weeks, 0 no injury, 100 complete kill
Procedure: as §1

[9] = system: giant foxtail (Setaria faberi); assay: Postemergence herbicidal activity, giant foxtail; details: foliar spray, visual after 2 weeks, 0 no injury, 100 complete kill
Procedure: as §1

[10] = system: Rox orange sorghum (Sorghum bicolor); assay: Postemergence herbicidal activity, Rox orange sorghum; details: foliar spray, visual after 2 weeks, 0 no injury, 100 complete kill
Procedure: as §1

wild oats (Avena fatua) [11] = assay: Postemergence herbicidal activity, wild oats; details: foliar spray, visual after 2 weeks, 0 no injury, 100 complete kill
Procedure: as §1

[12] = system: lambsquarters (Chenopodium album); assay: Preemergence herbicidal activity, lambsquarters; details: 8.8 g/Ha, soil spray, visual after 3 weeks; 0 no injury, 100 complete kill or no germination
Procedure: (§2) The soil matrix was contained in plastic pots with a surface area of 161 square centimeters. When required to ensure good germination and healthy plants, a fungicide treatment and/or other chemical or physical treatment was applied. A weighed amount, determined by the highest rate to be tested, of each test compound was placed in a 20 mL glass vial and was dissolved in 8 mL of a 97:3 v/v (volume/volume) mixture of acetone and dimethyl sulfoxide to obtain concentrated stock solutions. […] The stock solutions obtained were diluted with a 99.9:0.1 mixture of water and Tween® 155 surfactant (ethoxylated sorbitan fatty acid ester) to obtain application solutions of known concentration. The solutions containing the highest concentration to be tested were prepared by diluting 4 mL aliquots of the stock solution with 8.5 mL of the mixture and lower concentrations were prepared by dilution of appropriate smaller portions of the stock solution. A 2.5 mL aliquot of each solution of known concentration was sprayed evenly onto the soil of each seeded pot using a Cornwall 5.0 mL glass syringe fitted with a TeeJet TN-3 hollow cone nozzle to obtain thorough coverage of the soil in each pot. Control pots were sprayed in the same manner with the aqueous mixture. A highest application rate of 4.48 kg/ha is achieved when 50 mg of test compound is employed. The treated pots and control pots were placed in a greenhouse with an approximately 15 hr photoperiod which was maintained at about 23-29° C. during the day and 22-28° C. during the night. Nutrients and water were added on a regular basis and supplemental lighting was provided with overhead metal halide 1000 Watt lamps as necessary. The water was added by top-irrigation. After 3 weeks the condition of the test plants that germinated and grew as compared with that of the untreated plants that germinated and grew was determined visually and scored on a scale of 0 to 100 percent where 0 corresponds to no injury and 100 corresponds to complete kill or no germination.

[13] = system: morningglory (Ipomoea hederacea); assay: Preemergence herbicidal activity, morningglory; details: soil spray, visual after 3 weeks, 0 no injury, 100 complete kill or no germination
Procedure: as §2

[14] = system: pigweed (Amaranthus retroflexus); assay: Preemergence herbicidal activity, pigweed; details: soil spray, visual after 3 weeks, 0 no injury, 100 complete kill or no germination
Procedure: as §2

[15] = system: velvetleaf (Abutilion theophrasti); assay: Preemergence herbicidal activity, velvetleaf; details: soil spray, visual after 3 weeks, 0 no injury, 100 complete kill or no germination
Procedure: as §2

[16] = system: wild poinsettia (Euphorbia heterophylla); assay: Preemergence herbicidal activity, wild poinsettia; details: soil spray, visual after 3 weeks, 0 no injury, 100 complete kill or no germination
Procedure: as §2

[17] = system: blackgrass (Alopecurus myosuroides); assay: Preemergence herbicidal activity, blackgrass; details: soil spray, visual after 3 weeks, 0 no injury, 100 complete kill or no germination
Procedure: as §2

[18] = system: barnyardgrass (Echinochloa crus-galli); assay: Preemergence herbicidal activity, barnyardgrass; details: soil spray, visual after 3 weeks, 0 no injury, 100 complete kill or no germination
Procedure: as §2

[19] = system: crabgrass (Digitaria sanguinalis); assay: Preemergence herbicidal activity, crabgrass; details: soil spray, visual after 3 weeks, 0 no injury, 100 complete kill or no germination
Procedure: as §2

[20] = system: giant foxtail (Setaria faberi); assay: Preemergence herbicidal activity, giant foxtail; details: soil spray, visual after 3 weeks, 0 no injury, 100 complete kill or no germination
Procedure: as §2

[21] = system: Rox orange sorghum (Sorghum bicolor); assay: Preemergence herbicidal activity, Rox orange sorghum; details: soil spray, visual after 3 weeks, 0 no injury, 100 complete kill or no germination
Procedure: as §2

wild oats (Avena fatua) [22] = assay: Preemergence herbicidal activity, wild oats; details: soil spray, visual after 3 weeks, 0 no injury, 100 complete kill or no germination
Procedure: as §2

[23] = system: cocklebur (Xanthium strumarium); assay: Preemergence herbicidal activity, cocklebur; details: 4.4 g/Ha, soil spray, visual after 3 weeks; 0 no injury, 100 complete kill or no germination
Procedure: as §2

COc1ccsc1S(=O)(=O)Nc1nc2c(Cl)cnc(OC)n2n1 [Compound 2]
STEME postemergence injury score 0-100 ([1]; 7.8 ppm): 98%
XANST postemergence injury score 0-100 ([2]; 7.8 ppm): 60%
CHEAL postemergence injury score 0-100 ([3]; 7.8 ppm): 90%
IPOHE postemergence injury score 0-100 ([4]; 7.8 ppm): 85%
AMARE postemergence injury score 0-100 [5]: 98%
ABUTH postemergence injury score 0-100 ([6]; 7.8 ppm): 95%
VIOTR postemergence injury score 0-100 (viola (Viola tricolor); 7.8 ppm): 95%
POLCO postemergence injury score 0-100 [7]: 90%
ALOMY postemergence injury score 0-100 ([8]; 7.8 ppm): 70%
SETFA postemergence injury score 0-100 ([9]; 7.8 ppm): 98%
SORBI postemergence injury score 0-100 ([10]; 7.8 ppm): 98%
AVEFA postemergence injury score 0-100 (wild oats (Avena fatua) [11]; 7.8 ppm): 90%
CHEAL preemergence injury score 0-100 [12]: 98%
IPOHE preemergence injury score 0-100 ([13]; 8.8 g/Ha): 80%
AMARE preemergence injury score 0-100 ([14]; 8.8 g/Ha): 95%
ABUTH preemergence injury score 0-100 ([15]; 8.8 g/Ha): 75%
EPHHL preemergence injury score 0-100 ([16]; 8.8 g/Ha): 90%
ALOMY preemergence injury score 0-100 ([17]; 8.8 g/Ha): 95%
ECHCG preemergence injury score 0-100 ([18]; 8.8 g/Ha): 75%
DIGSA preemergence injury score 0-100 ([19]; 8.8 g/Ha): 100%
SETFA preemergence injury score 0-100 ([20]; 8.8 g/Ha): 100%
SORBI preemergence injury score 0-100 ([21]; 8.8 g/Ha): 100%
AVEFA preemergence injury score 0-100 (wild oats (Avena fatua) [22]; 8.8 g/Ha): 100%

COc1cscc1S(=O)(=O)Nc1nc2c(OC)cnc(OC)n2n1 [Compound 7, N-(5,8-dimethoxy[1,2,4]triazolo[1,5-c]pyrimidin-2-yl)-4-methoxythiophene-3-sulfonamide]
STEME postemergence injury score 0-100 ([1]; 1.9 ppm): 98%
XANST postemergence injury score 0-100 ([2]; 1.9 ppm): 80%
CHEAL postemergence injury score 0-100 ([3]; 1.9 ppm): 60%
IPOHE postemergence injury score 0-100 ([4]; 1.9 ppm): 80%
ABUTH postemergence injury score 0-100 ([6]; 1.9 ppm): 80%
VIOTR postemergence injury score 0-100 (viola (Viola tricolor); 1.9 ppm): 80%
ALOMY postemergence injury score 0-100 ([8]; 1.9 ppm): 98%
SETFA postemergence injury score 0-100 ([9]; 1.9 ppm): 100%
SORBI postemergence injury score 0-100 ([10]; 1.9 ppm): 98%
AVEFA postemergence injury score 0-100 (wild oats (Avena fatua) [11]; 1.9 ppm): 98%
XANST preemergence injury score 0-100 [23]: 80%
IPOHE preemergence injury score 0-100 ([13]; 4.4 g/Ha): 85%
AMARE preemergence injury score 0-100 ([14]; 4.4 g/Ha): 95%
ABUTH preemergence injury score 0-100 ([15]; 4.4 g/Ha): 95%
EPHHL preemergence injury score 0-100 ([16]; 4.4 g/Ha): 85%
ALOMY preemergence injury score 0-100 ([17]; 4.4 g/Ha): 100%
ECHCG preemergence injury score 0-100 ([18]; 4.4 g/Ha): 99%
DIGSA preemergence injury score 0-100 ([19]; 4.4 g/Ha): 100%
SETFA preemergence injury score 0-100 ([20]; 4.4 g/Ha): 100%
SORBI preemergence injury score 0-100 ([21]; 4.4 g/Ha): 100%
AVEFA preemergence injury score 0-100 (wild oats (Avena fatua) [22]; 4.4 g/Ha): 100%

Source: patent publication US6645918B1, “N-([1,2,4]triazoloazinyl)thiophenesulfonamide compounds and their use as herbicides” (Dow AgroSciences LLC, priority 2000, dated 2003)
